The values that follow come from ChEMBL document CHEMBL4665855, “Discovery of DS34942424: An orally potent analgesic without mu opioid receptor agonist activity” (Bioorg Med Chem, 2020).

A short description of series [1]: Protective index, ratio of ID50 for locomotory activity to ED50 for antinociceptive activity in orally dosed ddY mouse. The format is toxicity, organism-based. To be noted: in vivo, po.
A short description of series [2]: Effect on spontaneous locomotory activity in orally dosed ddY mouse measured for 1 hr. To be noted: in vivo, po. The format is ADME, organism-based.
The subject of series [3] is Mus musculus. As to the kind of experiment: Antinociceptive activity in orally dosed ddY mouse model assessed as inhibition of acetic acid-induced writhes pretreated for 30 mins followed by acetic acid challenge and measured for 25 mins post acetic acid challenge. The format is functional. To be noted: po, 55 min.
For series [4], the target named is T1, hERG (KCNH2) (Homo sapiens, UniProt Q12809). As to the kind of experiment: Inhibition of human ERG expressed in HEK293 cells at 30 uM at - 80 mV holding potential by whole cell patch clamp assay relative to control. The format is cell-based. The following applies: HEK293 cells expressing human ERG.
Series [5] deals with Mus musculus. As to the kind of experiment: Antinociceptive activity in ddY mouse model assessed as inhibition of acetic acid-induced writhes at 30 mg/kg, po pretreated for 30 mins followed by acetic acid challenge and measured for 25 mins post acetic acid challenge. To be noted: 55 min. In kind it is functional.
Series [6] concerns the target T1, hERG (KCNH2). As to the kind of experiment: Inhibition of human ERG expressed in HEK293 cells at 10 uM at - 80 mV holding potential by whole cell patch clamp assay relative to control. The format is cell-based. To be noted: HEK293 cells expressing human ERG.
Series [7] is described as follows: Metabolic stability in CD1 mouse liver microsomes assessed as compound remaining measured after 0.5 hrs by LC/MS-MS analysis. The format is ADME, Microsome. The following applies: read-out: Stabilty. In general terms: Liver microsomes are a subcellular fraction often used to study metabolism.
Series [8] is described as follows: Cmax in ddY mouse at 10 mg/kg, po by LC-MS/MS method. The format is ADME, organism-based. Also noted: route oral, dose 10 mg/kg. The following applies: in vivo.
Series [9] is described as follows: 1-Octanol-PBS buffer distribution coefficient, log D of compound at pH 7.4. In kind it is physicochemical.
Series [10] is described as follows: AUC in ddY mouse at 10 mg/kg, po by LC-MS/MS method. In kind it is ADME, organism-based. Also noted: dose 10 mg/kg. The following applies: in vivo.
Series [11] addresses T2, Mu-type opioid receptor (Homo sapiens, UniProt P35372). Description: Agonist activity at human MOR expressed in CHOK1 cells assessed as inhibition of forskolin-stimulated cAMP accumulation by FRET assay relative to DAMGO. To be noted: CHO-K1, human. The format is cell-based. (In general: Cyclic AMP is a second messenger, typically raised through Gs and lowered through Gi signalling.)

Series [12] addresses T2, Mu-type opioid receptor. As to the kind of experiment: Displacement of [3H]diprenorphine from human MOR incubated for 1 hr. On the technique in general: Loss of bound radioactivity is the signal in a displacement assay; it reports binding, not function.
Series [13] relates to Mus musculus. As to the kind of experiment: Analgesic activity in formalin-induced orally dosed ddY mouse model of hyperalgesia assessed as time spent in paw licking during acute phase pretreated for 30 mins followed by formalin challenge and measured for 10 mins. In kind it is functional. To be noted: po, 0.5 h.
The nature of series [14]: Half life in ddY mouse at 10 mg/kg, po by LC-MS/MS method. In kind it is ADME, organism-based. The following applies: in vivo.

T1 sequence (Q12809 whole entry): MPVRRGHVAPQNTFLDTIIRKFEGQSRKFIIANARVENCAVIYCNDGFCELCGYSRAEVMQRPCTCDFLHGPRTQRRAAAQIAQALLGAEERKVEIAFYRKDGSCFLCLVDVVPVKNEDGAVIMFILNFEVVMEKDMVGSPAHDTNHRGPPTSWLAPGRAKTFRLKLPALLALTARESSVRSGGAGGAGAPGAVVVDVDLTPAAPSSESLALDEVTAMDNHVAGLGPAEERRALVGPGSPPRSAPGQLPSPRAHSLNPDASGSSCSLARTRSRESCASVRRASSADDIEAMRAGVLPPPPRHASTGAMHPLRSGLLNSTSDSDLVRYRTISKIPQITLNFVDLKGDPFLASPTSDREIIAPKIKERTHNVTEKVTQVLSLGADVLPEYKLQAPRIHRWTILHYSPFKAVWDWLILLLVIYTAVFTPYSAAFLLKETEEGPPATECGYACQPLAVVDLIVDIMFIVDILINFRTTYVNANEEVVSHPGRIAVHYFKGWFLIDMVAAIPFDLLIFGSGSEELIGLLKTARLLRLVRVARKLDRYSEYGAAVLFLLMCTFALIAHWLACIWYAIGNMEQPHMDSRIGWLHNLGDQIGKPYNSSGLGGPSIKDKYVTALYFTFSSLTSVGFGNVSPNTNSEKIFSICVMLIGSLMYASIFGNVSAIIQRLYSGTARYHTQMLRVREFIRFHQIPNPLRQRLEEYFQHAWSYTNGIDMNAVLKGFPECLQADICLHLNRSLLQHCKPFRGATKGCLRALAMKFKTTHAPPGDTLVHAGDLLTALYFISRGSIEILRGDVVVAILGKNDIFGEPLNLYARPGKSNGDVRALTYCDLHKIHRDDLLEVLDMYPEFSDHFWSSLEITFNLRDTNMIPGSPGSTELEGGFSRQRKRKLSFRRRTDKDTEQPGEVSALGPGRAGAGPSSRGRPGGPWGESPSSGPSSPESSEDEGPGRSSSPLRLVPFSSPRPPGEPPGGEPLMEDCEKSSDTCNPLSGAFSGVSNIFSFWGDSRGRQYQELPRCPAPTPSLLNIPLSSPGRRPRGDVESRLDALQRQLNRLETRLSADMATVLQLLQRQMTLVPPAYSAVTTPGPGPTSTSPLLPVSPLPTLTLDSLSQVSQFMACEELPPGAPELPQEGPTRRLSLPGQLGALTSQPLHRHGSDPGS
T2 sequence (P35372 whole entry): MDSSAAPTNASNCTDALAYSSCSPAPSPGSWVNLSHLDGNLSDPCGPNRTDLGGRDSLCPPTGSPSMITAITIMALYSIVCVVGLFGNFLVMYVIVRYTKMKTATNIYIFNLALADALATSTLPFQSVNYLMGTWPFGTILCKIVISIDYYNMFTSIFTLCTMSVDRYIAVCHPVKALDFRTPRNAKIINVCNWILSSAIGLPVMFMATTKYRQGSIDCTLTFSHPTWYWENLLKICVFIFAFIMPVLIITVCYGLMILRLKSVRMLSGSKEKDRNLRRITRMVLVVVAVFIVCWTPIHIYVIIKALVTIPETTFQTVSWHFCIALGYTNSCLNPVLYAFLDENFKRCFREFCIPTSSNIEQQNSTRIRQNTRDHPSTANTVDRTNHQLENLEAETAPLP

Take `CC12CCN(CC1)Cc1c([nH]c3ccccc13)C2=O`: the selectivity ratio in [1] came to 2.1. The molecule further gave an ID50 in series [2] of 16 mg/kg. Besides, in the series with Mus musculus [3], the ED50 (commonly the midpoint of the dose-response relation) was 7.8 mg/kg.

As to `C/C=C1/CN2CC[C@H]1C(=O)c1[nH]c3ccccc3c1C2`, in series [1], the selectivity ratio came out at 2.2. This molecule also registered an ID50 in series [2] of 69 mg/kg. The ED50 with Mus musculus [3] came out at 32 mg/kg.

In the case of `CN1C(=O)c2[nH]c3ccccc3c2CN2CC[C@H]1C2`, the selectivity ratio in series [1] was 2.1. The same molecule gave an ID50 in series [2] of 19 mg/kg. For the same molecule, the ED50 in the series with Mus musculus [3] is 8.7 mg/kg.

`CN1C(=O)c2ccccc2CN2C[C@@H]1C1(CC1)C2`: the inhibition – broadly, the drop in the measured response relative to a control, in per cent – at 30 µM against hERG (KCNH2) [4] stood at 15%. Further, the inhibition in vivo (commonly the relative decrease from the control value, in per cent) at 30 mg/kg in the series on Mus musculus [5] worked out at 84%. At hERG (KCNH2) [6], the inhibition at 10 µM was 14%. In series [7], the remaining at 0.5 h was 81%. Besides, in series [8], the Cmax (commonly the highest concentration seen after dosing) worked out at 5.24 µM. For the same molecule, the logD – broadly, lipophilicity at a set pH, counting ionised and neutral species – in series [9] stood at 0.5. In [10], the AUC (usually the area under the concentration-time curve, a measure of exposure) was 5.24 µM·h. Further, the ED50 with Mus musculus [3] was 15 mg/kg.

As for `CN1C(=O)c2ccccc2CN2CC[C@H]1C2`, in the series on Mus musculus [5], the inhibition in vivo at 30 mg/kg was found to be 97%. Further, the inhibition at 10 µM at hERG (KCNH2) [6] turned out to be 5%. Moreover, the remaining at 0.5 h in [7] came to 82%. In [8], the Cmax came out at 3.74 µM. The molecule also showed a logD in series [9] of 0.3. In series [10], this molecule had an AUC of 7.79 µM·h. In addition, the selectivity ratio in [1] was greater than 3.4. In addition, the ID50 in series [2] was greater than 85 mg/kg. Further, the ED50 in the series with Mus musculus [3] was found to be 25 mg/kg.

For the molecule `CN1C(=O)c2cc(F)ccc2CN2C[C@@H]1C1(CC1)C2`, at hERG (KCNH2) [4], the inhibition at 30 µM turned out to be 14%. Further, the remaining at 0.5 h in [7] was found to be 81%. In series [9], this molecule displayed a logD of 0.9. Also, in the series on Mus musculus [3], the ED50 was 36 mg/kg.

Take `CN1C(=O)c2c(F)cccc2CN2C[C@@H]1C1(CC1)C2`: the inhibition at 30 µM on hERG (KCNH2) [4] worked out at 0%. The remaining at 0.5 h in series [7] was found to be 79%. Also, in series [9], the logD was found to be 1. In addition, the ED50 in the series on Mus musculus [3] came to 35 mg/kg.

In the case of `CN1C(=O)c2ccc(F)cc2CN2C[C@@H]1C1(CC1)C2`, the Emax (usually the greatest response seen or fitted, relative to the assay's reference) at Mu-type opioid receptor [11] worked out at 18%. Further, the EC50 – broadly, the concentration needed to bring the measured effect to its halfway point – at Mu-type opioid receptor [12] was greater than 100 µM. Further, the ED50 in the series on Mus musculus [13] was 16 mg/kg; in the series on Mus musculus [3], 6.4 mg/kg. Also, the half-life (usually how long it takes for the measured level to halve) in series [14] was 1.9 h. On hERG (KCNH2) [4], the inhibition at 30 µM was 2%. For the same molecule, the remaining at 0.5 h in series [7] amounted to 83%. This molecule also displayed a Cmax in series [8] of 1.47 µM. In addition, the logD in [9] was 0.9. The molecule also returned an AUC in series [10] of 1.74 µM·h. Further, the selectivity ratio in series [1] was found to be 10.3. This molecule also returned an ID50 in series [2] of 66 mg/kg.

Take `O=C1c2ccccc2CN2CCCN1CC2`: the inhibition in vivo at 30 mg/kg in the series with Mus musculus [5] came to 24%. Besides, the inhibition at 10 µM at hERG (KCNH2) [6] was -1%. The remaining at 0.5 h in series [7] is 78%. For the same molecule, the logD in [9] stood at 0.6.

Turning to `CN1C(=O)c2cccc(F)c2CN2C[C@@H]1C1(CC1)C2`, at hERG (KCNH2) [4], the inhibition at 30 µM amounted to 0%. The remaining at 0.5 h in [7] came to 79%. Besides, the logD in [9] turned out to be 0.9. Moreover, in the series on Mus musculus [3], the ED50 was determined as 14 mg/kg.

On to `CCN1C(=O)c2ccccc2CN2CC[C@H]1C2`, for which the inhibition in vivo at 30 mg/kg in the series on Mus musculus [5] amounted to 45%. In addition, the inhibition at 10 µM against hERG (KCNH2) [6] was 6%. The remaining at 0.5 h in [7] stood at 80%. Further, the logD in [9] turned out to be 0.4.

Consider `CC1c2ccccc2C(=O)N(C)[C@H]2CCN1C2` (some centres undefined), for which, in the series with Mus musculus [5], the inhibition in vivo at 30 mg/kg turned out to be 31%. In addition, the inhibition at 10 µM against hERG (KCNH2) [6] worked out at 6%. Besides, the remaining at 0.5 h in [7] worked out at 81%. The molecule also registered a pH-dependent lipophilicity (logD) in [9] of 0.3.

In the case of `CN1C(=O)c2ccccc2CN2CCC[C@H]1C2`, the inhibition in vivo at 30 mg/kg with Mus musculus [5] was determined as 77%. In addition, the inhibition at 10 µM on hERG (KCNH2) [6] came out at 5%. In addition, the remaining at 0.5 h in [7] worked out at 62%. The molecule further came in with a Cmax in [8] of 1.97 µM. The same molecule gave a logD in [9] of 0.3. Further, the AUC in [10] is 1.97 µM·h. In the series with Mus musculus [3], the ED50 worked out at 23 mg/kg.
